Laboratory results: US7262164B2, “Polymeric thiol-linked prodrugs employing benzyl elimination systems” (Enzon, Inc., priority 2001, dated 2007)
Marks after values point to notes of the source that are not given here.

Tests used:
Solubility in water = assay type: physicochemical
[1] = system: Lung M109 syngeneic solid tumors; experiment: In vivo M109 tumor model; parameters: species or system Balb/C mice; settings: i.v. day 1 & 4; for T/C (%) at Day 18: control median tumor volume approx. 1000 mm^3; for T/C (%) at Day 25: control median tumor volume approx. 2000 mm^3
Experimental: M109 cells (NCI), derived from donor mice, were grown and expanded in tissue culture for in vivo implantation. Cells were grown in EMEM with 10% FBS and 1% streptomycin/penicillin media, kept in an incubator at 37° C. with 5% CO2and split twice a week. Cells were trypsinized, harvested, washed, counted and prepared in PBS for transport to the vivarium. Cells were kept on ice until implantation was conducted with minimum lag time. A cell suspension of approximately 5×10^6 cells/mL was used. Balb/C mice were implanted subcutaneous with 100 μL of the above cell suspension (Day 0). Treatments were administered intravenously on Day 1 and Day 4. Compound doses were based on the content of 6-MP. Body weight and tumor volume were then measured twice weekly until the group's median tumor volume exceeded 2000 mm^3. The tumor volume for each mouse was determined by measuring two dimensions with calipers and calculated using the formula: tumor volume=(length×width^2)/2. Drug effects were determined by comparing tumor growth in treated versus control (no vehicle) mice. Two types of endpoints were used as the basis for comparison: (a) the percent difference in tumor volume (% T/C), measured when the control group's median tumor volume reached approximately 800-1100 mm^3 (exponential growth phase) and (b) again when the control group's median tumor volume was approximately 2000 mm^3.

[2] = system: murine leukemia cell line L1210/O; experiment: In vivo L1210 tumor model (ascites); parameters: species or system mouse; settings: Q2d×6, IP, intralipid
From the text: 6-MP and pro-drug forms of 6-MP were screened for in vivo activity against the murine leukemia cell line L1210/O (mouse, lymphocytic leukemia). The cell line was obtained from Southern Research Institute (Birmingham, Ala.) and grown in DMEM supplemented with 10% horse serum. L 1210/O cells were subcultured two times per week and log phase cultures (viability≧95%) were used for all in vivo experiments. Female CD2F1 mice (Taconic Farms, Germantown, N.Y.) at 7-8 weeks of age were used for study. Following one week of acclimation, mice were implanted i.p. with L1210/0 cells (5×10^5 cells/mouse) at designated day 0. The mice were randomly assigned to experimental groups (8-10/group). The groups included control, 6-MP and PEG-6-MP conjugates. 6-MP was solubilized in 3% DMSO and suspended in intralipid and administered Q2d×6, IP. PEG-6-MP was dissolved in phosphate buffer (pH 5.8) and administered Q4d×3, IV. Control groups received vehicle (intralipid or phosphate buffer). The mice were monitored for up to 40 days, and the treatment was evaluated as percentage of increase in life span (ILS).

P388/0 cell lines = experiment: Cytotoxicity assay, Alamar Blue cell growth; assay type: cell-based; settings: Mus musculus, 72 h, P388/0 cells, 3 days
Experimental: Cell Lines and Cytotoxicity Assays. Studies using P388/0 cell lines for IC50 (drug concentration inhibiting growth of cells by 50%) were maintained and conducted as previously reported. Briefly, for IC50 determination, cells were seeded into the microwell plates at a density of 2×10^3 cells per 50 μL per well. Plates were incubated at 37° C. in a humidified incubator with 5% CO2 for 3 days. Cell growth was measured by the addition of 10 μL/well of Alamar Blue (Alamar Biosciences, Inc., Sacramento, Calif.) and the plates were incubated a further 4 hours at 37° C. The IC50values for each compound were determined from absorbance versus dilution factor plots. All cell cultures for animal implantation were maintained at 37° C. in a humidified atmosphere of 5% CO2/[…] and subcultured once a week. All cell lines were periodically tested for Mycoplasma and were Mycoplasma free.

[3] = total dose 200 mg/kg (6-MP content)

Sc1ncnc2nc[nH]c12 [6-MP (1), 6-mercaptopurine]
solubility (Solubility in water): < 100 µg/mL
Anti-tumor activity, inhibiting the growth of M109 solid tumors (in words) ([1]; Balb/C mice): ineffective
T/C (%) at Day 18 [1, 3]: 144%
T/C (%) at Day 25 [1, 3]: 184%
% ILS (percent increase in life span) ([2]; total dose 90 mg/kg): 31.8%
% ILS (percent increase in life span) ([2]; total dose 240 mg/kg): 52.5* %

Nc1nc2nc[nH]c2c(=S)[nH]1 [6-TG (2), 6-thioguanine]
IC50 (P388/0 cell lines): 360 nM
T/C (%) at Day 18 ([1]; total dose 40 mg/kg): 82%
T/C (%) at Day 25 ([1]; total dose 40 mg/kg): 78%
